The target of the test is T1, human recombinant OX2 (hOX2) receptors expressed in CHO cells (Homo sapiens, UniProt O43614).
T1 construct: host or cells: CHO cells (hOX2-CHO)
T1 sequence (O43614 1-444): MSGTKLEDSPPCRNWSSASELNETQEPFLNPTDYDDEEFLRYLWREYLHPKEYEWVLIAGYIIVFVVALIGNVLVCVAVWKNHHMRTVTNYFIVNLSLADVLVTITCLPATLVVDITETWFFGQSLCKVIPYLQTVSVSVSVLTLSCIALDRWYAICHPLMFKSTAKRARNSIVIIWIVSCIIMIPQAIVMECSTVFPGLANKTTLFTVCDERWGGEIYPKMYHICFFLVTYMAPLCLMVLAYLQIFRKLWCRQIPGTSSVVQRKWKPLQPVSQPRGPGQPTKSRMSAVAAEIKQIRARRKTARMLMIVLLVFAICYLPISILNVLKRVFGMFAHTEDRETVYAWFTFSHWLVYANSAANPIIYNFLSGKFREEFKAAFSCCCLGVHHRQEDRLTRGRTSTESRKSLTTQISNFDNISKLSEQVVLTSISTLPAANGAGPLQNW
The test can be described thus: IP-1 accumulation assay (IP-One HTRF) in hOX2-CHO cells. The note with it: 60 min incubation at 37° C., mean of at least two independent experiments, read-out: EC50_OX2R Category. The format is cell-based. In short, it runs like this:
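CHO cells in suspension in HBSS/20 mM HEPES pH 7.4 with 50 mM LiCl and 0.1% BSA, given compound (11-point series, 0.5% DMSO) for 60 min at 37 °C. IP-1 read by HTRF ratio, scaled to maximal OX-A response; EC50 from four-parameter fit, mean of ≥2 experiments.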
For orientation: In TR-FRET formats the signal depends on donor and acceptor labels being close together.

In the case of `C[C@@H]1C[C@]2(COCC(=O)N2)[C@H]2CO[C@H]3CC[C@H](CC3)c3ccccc3OCC(=O)N12` [Example 12b, (1′s,3R,12′R,15′S, 18′s)-12′-methyl-8′,17′-dioxa-11′-azaspiro[morpholine-3,14′-tetracyclo[16.2.2.0^2,70.0^11,15]docosane]-2′(7′),3′,5′-triene-5,10′-dione], the EC50 lay within 100 to 1000 nM.

Consider `C[C@@H]1C[C@]2(COCC(=O)N2)[C@H]2CO[C@H]3CC[C@H](CC3)c3ccc(F)cc3OCC(=O)N12` [Example 19b, (1′s,3R,12′R,15′S, 18′s)-5′-fluoro-12′-methyl-8′,17′-dioxa-11′-azaspiro[morpholine-3,14′-tetracyclo [16.2.2.0^2,^7.0^11,^15]docosane]-2′,4′,6′-triene-5,10′-dione], for which the EC50 is > 10000 nM.

In the case of `C[C@@H]1C[C@@]2(COCC(=O)N2)[C@@H]2CO[C@H]3CC[C@H](CC3)c3cc(F)cc(F)c3OCCC(=O)N12` [Example 25a, (1′s,3S,13′R,16′R, 19′s)-4′,6′-difluoro-13′-methyl-8′,18′-dioxa-12′-azaspiro[morpholine-3,15′-tetracyclo[17.2.2. 0^2,^7.0^12,^16]tricosane]-2′,4′,6′-triene-5,11′-dione], the EC50 is < 100 nM.

Turning to `C[C@@H]1C[C@]2(COCC(=O)N2)[C@H]2CO[C@H]3CC[C@H](CC3)c3cc(F)cc(F)c3OCCC(=O)N12` [Example 25b, (1′s,3R,13′R,16′S, 19′s)-4′,6′-difluoro-13′-methyl-8′,18′-dioxa-12′-azaspiro[morpholine-3,15′-tetracyclo[17.2.2. 0^2,^7.0^12,^16]tricosane]-2′,4′,6′-triene-5,11′-dione], the EC50 was < 100 nM.

In the case of `O=C1COCC2(CCCN3C(=O)COc4ccccc4[C@H]4CC[C@H](CC4)OCC32)N1` (stereo partly drawn) [Example 32, Rel-(1′s,3S,16′R,19′s)-8′,18′-dioxa-11′-azaspiro[morpholine-3, 15′-tetracyclo-[17.2.2.0^2,70.0^11,16]tricosane]-2′(7′),3′,5′-triene-5,10′-dione], the EC50 was < 100 nM.

On to `O=C1COCC2(CCCN3C(=O)CCOc4ccccc4[C@H]4CC[C@H](CC4)OCC32)N1` (stereo partly drawn) [Example 33, Rel-(1′s,3S,17′R,20's)-8′,19′-dioxa-12′-azaspiro[morpholine-3,16′-tetracyclo-[18.2.2.0^2,70.0^12,17]tetracosane]-2′(7′),3′,5′-triene-5,11′-dione], for which the EC50 was < 100 nM.

For the compound `O=C1COCC2(CCCN3C(=O)CCCOc4ccccc4[C@H]4CC[C@H](CC4)OCC32)N1` (stereo partly drawn) [Example 34, Rel-(1′s,3S,18′R,21′s)-8′,20′-dioxa-13′-azaspiro[morpholine-3,17′-tetracyclo[19.2.2.0^2,70.0^13,18]pentacosane]-2′(7′),3′,5′-triene-5,12′-dione], the EC50 was < 100 nM.

On to `CC1Oc2ccccc2[C@H]2CC[C@H](CC2)OCC2N(CCCC23COCC(=O)N3)C1=O` (stereo partly drawn) [Example 35, Rel-(1′s,3S,16′R,19′s)-9′-methyl-8′,18′-dioxa-11′-azaspiro[morpholine-3, 15′-tetracyclo[17.2.2.0^2,70.0^11,16]tricosane]-2′(7′),3′,5′-triene-5,10′-dione], for which the EC50 is < 100 nM.

Turning to `CC1(C)Oc2ccccc2[C@H]2CC[C@H](CC2)OCC2N(CCCC23COCC(=O)N3)C1=O` (stereo partly drawn) [Example 36, Rel-(1′s,3S,16′R,19′s)-9′,9′-dimethyl-8′,18′-dioxa-11′-azaspiro[morpholine-3,15′-tetracyclo[17.2.2.0^2,70.0^11,16]tricosane]-2′(7′),3′,5′-triene-5,10′-dione], the EC50 is 100 to 1000 nM.

In the case of `O=C1COCC2(CCCN3C(=O)C4(CC4)COc4ccccc4[C@H]4CC[C@H](CC4)OCC32)N1` (stereo partly drawn) [Example 37, Rel-(1′s,16′S,17′R,20's)-dispiro[cyclopropane-1,10′-[8,19]dioxa-[12]azatetracyclo[18.2.2.0^2,70.0^12,17]tetracosane-16′,3″-morpholine]-2′(7′),3′,5′-triene-5″,11′-dione], the EC50 was < 100 nM.

For the compound `O=C1COCC2(CCCN3C(=O)COc4ccc(F)cc4[C@H]4CC[C@H](CC4)OCC32)N1` (stereo partly drawn) [Example 41, Rel-(1′s,3S,16′R,19′s)-4′-fluoro-8′,18′-dioxa-11′-azaspiro[morpholine-3,15′-tetracyclo[17.2.2. 0^2,^7.0^11,^16]tricosane]-2′(7′),3′,5′-triene-5,10′-dione], the EC50 is < 100 nM.

On to `O=C1COCC2(CCCN3C(=O)COc4ncccc4[C@H]4CC[C@H](CC4)OCC32)N1` (stereo partly drawn) [Example 45, Rel-(1′s,3S,16′R,19′s)-8′,18′-dioxa-6′,11′-diazaspiro [morpholine-3,15′-tetracyclo[17.2.2. 0^2,^7.0^11,^16]tricosane]-2′(7′),3′,5′-triene-5,10′-dione], for which the EC50 is < 100 nM.

Consider `O=C1COC[C@]2(CCCN3C(=O)COc4ncccc4[C@H]4CC[C@H](CC4)OC[C@@H]32)N1` [Example 45b, (1′s,3R,16′S,19′s)-8′,18′-dioxa-6′,11′-diazaspiro [morpholine-3,15′-tetracyclo[17.2.2. 0^2,^7.0^11,^16]tricosane]-2′(7′),3′,5′-triene-5,10′-dione], for which the EC50 is > 10000 nM.

Consider `Cc1cccc2c1[C@H]1CC[C@H](CC1)OCC1N(CCCC13COCC(=O)N3)C(=O)CO2` (stereo partly drawn) [Example 47, Rel-(1′s,3S,16′R,19′s)-3′-methyl-8′,18′-dioxa-11′-azaspiro[morpholine-3,15′-tetracyclo[17.2.2. 0^2,^7.0^11,^16]tricosane]-2′(7′),3′,5′-triene-5,10′-dione], for which the EC50 was < 100 nM.

Take `O=C1COCC2(CCCN3C(=O)COCc4ccccc4[C@H]4CC[C@H](CC4)OCC32)N1` (stereo partly drawn) [Example 55, Rel-(1′s,3S,17′R,20's)-9′,19′-dioxa-12′-azaspiro[morpholine-3,16′-tetracyclo[18.2.2.0^2,70.0^12,17]tetracosane]-2′(7′),3′,5′-triene-5,11′-dione]: the EC50 was 1000 to 10000 nM.

For `O=C1CCOc2ccccc2[C@H]2CC[C@H](CC2)OCC2N1CCCC21CCCS(=O)(=O)N1` (stereo partly drawn) [Example 60, Rel-(1s, 16R,17R,20s)-8,19-dioxa-12-azaspiro[tetracyclo[18.2.2.0^2,70.0^12,17]tetracosane-16,3′-[1λ^6,2]thiazinane]-2 (7),3,5-triene-1′,1′,11-trione], the EC50 was in the range of 100 to 1000 nM.

Turning to `O=C1COCC2(CCCN3C(=S)COc4ccccc4[C@H]4CC[C@H](CC4)OCC32)N1` (stereo partly drawn) [Example 66, Rel-(1′s,3S,16′R,19′s)-10′-sulfanylidene-8′,18′-dioxa-11′-azaspiro[morpholine-3,15′-tetracyclo[17.2.2.0^2,70.0^11,16]tricosane]-2′(7′),3′,5′-trien-5-one], the EC50 lay in the range of 1000 to 10000 nM.

`Cc1ccnc2c1C1CCC(CC1)OCC1N(CCCC13COCC(=O)N3)C(=O)CO2` [Example 77a, (1′s,3S,16′R,19′s)-3′-methyl-8′,18′-dioxa-6′,11′-diazaspiro[morpholine-3,15′-tetracyclo[17.2.2.0^2,70.0^11,16]tricosane]-2′,4′,6′-triene-5,10′-dione]: the EC50 was < 100 nM.

For the compound `Cc1ccnc2c1[C@H]1CC[C@H](CC1)OC[C@H]1N(CCC[C@]13COCC(=O)N3)C(=O)CO2` [Example 77b, (1′s,3R,16′S,19′s)-3′-methyl-8′,18′-dioxa-6′, 11′-diazaspiro[morpholine-3,15′-tetracyclo[17.2.2.0^2,70.0^11,16]tricosane]-2′,4′,6′-triene-5,10′-dione], the EC50 was > 10000 nM.

Source of the values: US20250320227A1, “MACROCYCLIC OREXIN RECEPTOR AGONISTS AND USES THEREOF” (Jazz Pharmaceuticals Ireland Limited, priority 2022, published 2025).
